Patent publication US9096602B2, “Substituted pyrrolo[2,3-B]pyrazines as ATR kinase inhibitors” (Vertex Pharmaceuticals Incorporated, priority 2011, dated 2015)

Molecular target: T1, ATR kinase (full-length ATR) (Homo sapiens, UniProt Q13535)
T1 construct: Assays were carried out at 25° C. in the presence of 5 nM full-length ATR
Assay: ATR Inhibition Assay (radioactive-phosphate incorporation)
Assay type: biochemical
Conditions: Ki(app); 5 nM full-length ATR, 10 μM ATP, 800 μM target peptide, 25° C.; class symbols; read-out: ATR Inhibition Ki
Protocol: Compounds were screened for their ability to inhibit ATR kinase using a radioactive-phosphate incorporation assay. Assays were carried out in a mixture of 50 mM Tris/HCl (pH 7.5), 10 mM MgCl2 and 1 mM DTT. Final substrate concentrations were 10 μM [y-33P]ATP (3mCi 33P ATP/mmol ATP, Perkin Elmer) and 800 μM target peptide ([…]).
Assays were carried out at 25° C. in the presence of 5 nM full-length ATR. An assay stock buffer solution was prepared containing all of the reagents listed above, with the exception of ATP and the test compound of interest. […] The plate was pre-incubated for 10 minutes at 25° C. and the reaction initiated by addition of 15 μL [y-33P]ATP (final concentration 10 μM).
The reaction was stopped after […] by the addition of 30 μL 0.1M phosphoric acid containing 2 mM ATP. A multiscreen phosphocellulose filter 96-well plate (Millipore, Cat no. MAPHN0B50) was pretreated with 100 μL 0.2M phosphoric acid prior to the addition of 45 μL of the stopped assay mixture. The plate was washed with 5×200 μL 0.2M phosphoric acid.
After removing mean background values for all of the data points, Ki(app) data were calculated from non-linear regression analysis of the initial rate data using the Prism software package (GraphPad Prism version 3.0cx for Macintosh, GraphPad Software, San Diego Calif., USA).

T1 sequence (Q13535 whole entry): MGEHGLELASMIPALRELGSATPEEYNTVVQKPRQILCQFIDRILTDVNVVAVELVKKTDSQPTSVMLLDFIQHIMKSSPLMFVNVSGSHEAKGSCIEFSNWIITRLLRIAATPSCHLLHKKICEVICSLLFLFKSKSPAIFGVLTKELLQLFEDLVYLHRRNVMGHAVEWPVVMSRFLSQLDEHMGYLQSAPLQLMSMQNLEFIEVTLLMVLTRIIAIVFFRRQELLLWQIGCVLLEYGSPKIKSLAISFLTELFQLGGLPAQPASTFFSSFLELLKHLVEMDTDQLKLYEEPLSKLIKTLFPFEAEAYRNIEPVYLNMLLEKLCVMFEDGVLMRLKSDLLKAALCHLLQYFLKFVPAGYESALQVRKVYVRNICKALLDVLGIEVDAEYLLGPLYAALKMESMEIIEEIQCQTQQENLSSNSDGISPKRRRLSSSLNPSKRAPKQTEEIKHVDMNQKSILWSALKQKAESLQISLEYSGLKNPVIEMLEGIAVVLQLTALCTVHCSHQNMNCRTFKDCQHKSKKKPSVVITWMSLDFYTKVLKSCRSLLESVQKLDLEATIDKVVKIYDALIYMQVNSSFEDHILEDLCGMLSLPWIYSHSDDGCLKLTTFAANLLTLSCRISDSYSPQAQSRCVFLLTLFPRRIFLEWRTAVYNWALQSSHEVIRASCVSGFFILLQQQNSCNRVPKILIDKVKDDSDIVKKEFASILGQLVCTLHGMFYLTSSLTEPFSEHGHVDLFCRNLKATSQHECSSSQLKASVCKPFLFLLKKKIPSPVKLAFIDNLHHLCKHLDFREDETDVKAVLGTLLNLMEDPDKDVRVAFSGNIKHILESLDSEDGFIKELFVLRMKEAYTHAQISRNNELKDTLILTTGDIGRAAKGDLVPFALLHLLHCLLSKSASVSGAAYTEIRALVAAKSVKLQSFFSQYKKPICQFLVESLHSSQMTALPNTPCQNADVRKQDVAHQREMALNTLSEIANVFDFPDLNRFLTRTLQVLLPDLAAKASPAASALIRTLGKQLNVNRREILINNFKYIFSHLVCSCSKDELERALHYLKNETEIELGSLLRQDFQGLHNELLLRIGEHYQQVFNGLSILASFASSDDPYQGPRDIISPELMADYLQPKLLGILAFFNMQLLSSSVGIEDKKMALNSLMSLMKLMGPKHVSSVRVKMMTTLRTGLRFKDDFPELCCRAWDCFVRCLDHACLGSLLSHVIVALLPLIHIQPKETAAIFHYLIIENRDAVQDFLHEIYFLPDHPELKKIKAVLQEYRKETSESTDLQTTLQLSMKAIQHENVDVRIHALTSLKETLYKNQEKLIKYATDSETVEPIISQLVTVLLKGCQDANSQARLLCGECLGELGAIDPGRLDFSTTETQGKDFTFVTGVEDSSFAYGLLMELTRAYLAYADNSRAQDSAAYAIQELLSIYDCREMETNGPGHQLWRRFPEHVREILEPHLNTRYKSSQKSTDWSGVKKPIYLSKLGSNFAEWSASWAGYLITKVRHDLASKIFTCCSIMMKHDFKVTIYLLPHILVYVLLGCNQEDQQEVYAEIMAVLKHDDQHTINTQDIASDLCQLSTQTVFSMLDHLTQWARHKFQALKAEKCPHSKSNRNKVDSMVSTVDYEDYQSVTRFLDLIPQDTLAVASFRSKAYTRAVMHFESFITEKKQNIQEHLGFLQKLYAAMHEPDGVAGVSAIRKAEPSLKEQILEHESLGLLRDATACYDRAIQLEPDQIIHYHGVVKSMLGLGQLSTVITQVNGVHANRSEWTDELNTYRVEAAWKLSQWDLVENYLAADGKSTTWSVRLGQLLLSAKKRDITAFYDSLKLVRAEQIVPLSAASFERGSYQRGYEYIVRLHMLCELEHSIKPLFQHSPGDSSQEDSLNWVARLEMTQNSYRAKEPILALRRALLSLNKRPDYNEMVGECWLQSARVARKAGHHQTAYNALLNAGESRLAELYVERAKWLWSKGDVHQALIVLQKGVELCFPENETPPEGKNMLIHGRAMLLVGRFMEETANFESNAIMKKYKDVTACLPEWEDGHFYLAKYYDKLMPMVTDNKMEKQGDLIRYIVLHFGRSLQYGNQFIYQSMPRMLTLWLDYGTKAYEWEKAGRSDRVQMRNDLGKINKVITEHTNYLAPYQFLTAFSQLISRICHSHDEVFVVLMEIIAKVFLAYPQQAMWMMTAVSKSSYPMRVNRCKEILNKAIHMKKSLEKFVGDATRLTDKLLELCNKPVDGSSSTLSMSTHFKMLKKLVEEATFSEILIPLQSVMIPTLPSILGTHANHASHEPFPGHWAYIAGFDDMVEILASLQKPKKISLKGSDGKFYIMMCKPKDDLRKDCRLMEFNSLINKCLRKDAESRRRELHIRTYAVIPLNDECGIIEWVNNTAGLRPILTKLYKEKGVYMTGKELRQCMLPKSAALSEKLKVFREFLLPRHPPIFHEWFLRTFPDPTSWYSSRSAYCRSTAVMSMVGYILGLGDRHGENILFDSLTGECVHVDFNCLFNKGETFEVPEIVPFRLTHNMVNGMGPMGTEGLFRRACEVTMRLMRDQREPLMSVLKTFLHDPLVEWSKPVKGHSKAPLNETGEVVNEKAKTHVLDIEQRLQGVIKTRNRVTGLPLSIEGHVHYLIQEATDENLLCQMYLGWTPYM

Row | Compound | Ki [nM]
1 | CC(C)S(=O)(=O)c1ccc(-c2cnc3[nH]cc(C(=O)N[C@@H]4c5ccccc5C[C@@H]4O)c3n2)cc1 [Compound I-65, N-[(1R,2S)-2-hydroxyindan-1-yl]-2-(4-isopropylsulfonylphenyl)-5H-pyrrolo[2,3-b]pyrazine-7-carboxamide] | 500 to 5000
2 | Cc1ccc(NC(=O)c2c[nH]c3ncc(-c4ccc(S(=O)(=O)C(C)C)cc4)nc23)cc1 [Compound I-70, 2-(4-isopropylsulfonylphenyl)-N-(p-tolyl)-5H-pyrrolo[2,3-b]pyrazine-7-carboxamide] | 100 to 500
3 | CC(C)S(=O)(=O)c1ccc(-c2cnc3[nH]cc(C(=O)N[C@@H](C)c4ccccc4F)c3n2)cc1 [Compound I-71, N-[(1S)-1-(2-fluorophenyl)ethyl]-2-(4-isopropylsulfonylphenyl)-5H-pyrrolo[2,3-b]pyrazine-7-carboxamide] | 100 to 500
4 | CC(C)S(=O)(=O)c1ccc(-c2cnc3[nH]cc(C(=O)Nc4ccc(F)cc4)c3n2)cc1 [Compound I-72, N-(4-fluorophenyl)-2-(4-isopropylsulfonylphenyl)-5H-pyrrolo[2,3-b]pyrazine-7-carboxamide] | 100 to 500
5 | CC(C)S(=O)(=O)c1ccc(-c2cnc3[nH]cc(C(=O)N[C@@H](C)c4ccc(F)cc4)c3n2)cc1 [Compound I-74, N-[(1S)-1-(4-fluorophenyl)ethyl]-2-(4-isopropylsulfonylphenyl)-5H-pyrrolo[2,3-b]pyrazine-7-carboxamide] | 500 to 5000
6 | CC(C)S(=O)(=O)c1ccc(-c2cnc3[nH]cc(C(=O)NCc4cccc(F)c4)c3n2)cc1 [Compound I-75, N-[(3-fluorophenyl)methyl]-2-(4-isopropylsulfonylphenyl)-5H-pyrrolo[2,3-b]pyrazine-7-carboxamide] | 100 to 500
7 | Cc1cccc(NC(=O)c2c[nH]c3ncc(-c4ccc(S(=O)(=O)C(C)C)cc4)nc23)c1 [Compound I-76, 2-(4-isopropylsulfonylphenyl)-N-(m-tolyl)-5H-pyrrolo[2,3-b]pyrazine-7-carboxamide] | 500 to 5000
8 | CC(C)S(=O)(=O)c1ccc(-c2cnc3[nH]cc(C(=O)NC(CCO)c4cccc(O)c4)c3n2)cc1 (stereo not drawn) [Compound I-77, N-[3-hydroxy-1-(3-hydroxyphenyl)propyl]-2-(4-isopropylsulfonylphenyl)-5H-pyrrolo[2,3-b]pyrazine-7-carboxamide] | 100 to 500
9 | CC(C)S(=O)(=O)c1ccc(-c2cnc3[nH]cc(C(=O)NC(CCO)c4ccc(F)cc4)c3n2)cc1 (stereo not drawn) [Compound I-78, N-[1-(4-fluorophenyl)-3-hydroxy-propyl]-2-(4-isopropylsulfonylphenyl)-5H-pyrrolo[2,3-b]pyrazine-7-carboxamide] | 100 to 500
10 | CC(C)S(=O)(=O)c1ccc(-c2cnc3[nH]cc(C(=O)NC(CCO)c4cccc(N)c4)c3n2)cc1 (stereo not drawn) [Compound I-79, N-[1-(3-aminophenyl)-3-hydroxy-propyl]-2-(4-isopropylsulfonylphenyl)-5H-pyrrolo[2,3-b]pyrazine-7-carboxamide] | 100 to 500
11 | CC(C)S(=O)(=O)c1ccc(-c2cnc3[nH]cc(C(=O)NC(CCO)c4ccc(N)cc4)c3n2)cc1 (stereo not drawn) [Compound I-80, N-[1-(4-aminophenyl)-3-hydroxy-propyl]-2-(4-isopropylsulfonylphenyl)-5H-pyrrolo[2,3-b]pyrazine-7-carboxamide] | 100 to 500
12 | Cc1cccnc1CNC(=O)c1c[nH]c2ncc(-c3ccc(S(=O)(=O)C(C)C)cc3)nc12 [Compound I-83, 2-(4-isopropylsulfonylphenyl)-N-[(3-methyl-2-pyridyl)methyl]-5H-pyrrolo[2,3-b]pyrazine-7-carboxamide] | 100 to 500
13 | CC(C)S(=O)(=O)c1ccc(-c2cnc3[nH]cc(C(=O)N[C@H](C)[C@@H](O)c4ccc(O)cc4)c3n2)cc1 [Compound I-84, N-[(1R,2S)-2-hydroxy-2-(4-hydroxyphenyl)-1-methyl-ethyl]-2-(4-isopropylsulfonylphenyl)-5H-pyrrolo[2,3-b]pyrazine-7-carboxamide] | 100 to 500

Other lines, results leading:

Row | Ki [nM] | Compound
14 | < 100 | Cc1cccc(CNC(=O)c2c[nH]c3ncc(-c4ccc(S(=O)(=O)C(C)C)cc4)nc23)c1Cl [Compound I-66, N-[(2-chloro-3-methyl-phenyl)methyl]-2-(4-isopropylsulfonylphenyl)-5H-pyrrolo[2,3-b]pyrazine-7-carboxamide]
15 | < 100 | Cc1ccc(Cl)cc1CNC(=O)c1c[nH]c2ncc(-c3ccc(S(=O)(=O)C(C)C)cc3)nc12 [Compound I-67, N-[(5-chloro-2-methyl-phenyl)methyl]-2-(4-isopropylsulfonylphenyl)-5H-pyrrolo[2,3-b]pyrazine-7-carboxamide]
16 | < 100 | Cc1cccc(CNC(=O)c2c[nH]c3ncc(-c4ccc(S(=O)(=O)C(C)C)cc4)nc23)c1C [Compound I-68, N-[(2,3-dimethylphenyl)methyl]-2-(4-isopropylsulfonylphenyl)-5H-pyrrolo[2,3-b]pyrazine-7-carboxamide]
17 | < 100 | CC(C)S(=O)(=O)c1ccc(-c2cnc3[nH]cc(C(=O)N[C@H]4c5ccccc5C[C@H]4O)c3n2)cc1 [Compound I-69, N-[(1S,2R)-2-hydroxyindan-1-yl]-2-(4-isopropylsulfonylphenyl)-5H-pyrrolo[2,3-b]pyrazine-7-carboxamide]
18 | < 100 | CC(C)S(=O)(=O)c1ccc(-c2cnc3[nH]cc(C(=O)Nc4cccc(F)c4)c3n2)cc1 [Compound I-73, N-(3-fluorophenyl)-2-(4-isopropylsulfonylphenyl)-5H-pyrrolo[2,3-b]pyrazine-7-carboxamide]
19 | < 100 | Cc1ccc([C@@H](CCO)NC(=O)c2c[nH]c3ncc(-c4ccc(S(=O)(=O)C(C)C)cc4)nc23)cc1 [Compound I-81, N-[(1R)-3-hydroxy-1-(p-tolyl)propyl]-2-(4-isopropylsulfonylphenyl)-5H-pyrrolo[2,3-b]pyrazine-7-carboxamide]
20 | < 100 | Cc1ccc(CNC(=O)c2c[nH]c3ncc(-c4ccc(S(=O)(=O)C(C)C)cc4)nc23)c(C)c1 [Compound I-82, N-[(2,4-dimethylphenyl)methyl]-2-(4-isopropylsulfonylphenyl)-5H-pyrrolo[2,3-b]pyrazine-7-carboxamide]
21 | < 100 | Cc1c(F)cccc1CNC(=O)c1c[nH]c2ncc(-c3ccc(S(=O)(=O)C(C)C)cc3)nc12 [Compound I-85, N-[(3-fluoro-2-methyl-phenyl)methyl]-2-(4-isopropylsulfonylphenyl)-5H-pyrrolo[2,3-b]pyrazine-7-carboxamide]
22 | < 100 | CC(C)S(=O)(=O)c1ccc(-c2cnc3[nH]cc(C(=O)NC4CCOc5ccccc54)c3n2)cc1 (stereo not drawn) [Compound I-86, N-chroman-4-yl-2-(4-isopropylsulfonylphenyl)-5H-pyrrolo[2,3-b]pyrazine-7-carboxamide]
23 | < 100 | Cc1ccc(F)cc1CNC(=O)c1c[nH]c2ncc(-c3ccc(S(=O)(=O)C(C)C)cc3)nc12 [Compound I-87, N-[(5-fluoro-2-methyl-phenyl)methyl]-2-(4-isopropylsulfonylphenyl)-5H-pyrrolo[2,3-b]pyrazine-7-carboxamide]
24 | < 100 | CC(C)S(=O)(=O)c1ccc(-c2cnc3[nH]cc(C(=O)NCc4cccc(F)c4F)c3n2)cc1 [Compound I-88, N-[(2,3-difluorophenyl)methyl]-2-(4-isopropylsulfonylphenyl)-5H-pyrrolo[2,3-b]pyrazine-7-carboxamide]
